Measured values published in US8815523B2, “Method for live-cell activity assay” (Korea Institute of Science and Technology, priority 2010, dated 2014).

What was measured:
Format in all cases: cell-based
[1] = system: Protein tyrosine phosphatase (PTP) in HeLa cells; experiment: Nanowire sandwich assay of intracellular PTP activity with PTP inhibitors (MALDI-TOF of substrate peptide); conditions: 100 μM sodium orthovanadate and 40 μM α-bromo-4-hydroxyacetophenone given together, 40 minutes pre-incubation, then 1 hour sandwich incubation, FIG. 5C
Protocol: Specifically, the silicon nanowires prepared in Example 1 were washed with 100% (v/v) isopropyl alcohol before use and dried at room temperature, and then, introduced in 2 ml of toluene solution containing 100 μl of APTMS (Aminopropyl trimethoxysilane), reacted at room temperature for 2 hours, and washed 3 times respectively with toluene, 100% ethanol and distilled water, and finally washed with PBS (Phosphate Buffered Saline) to complete silanization so that the surface of the silicon nanowire has positively charged ammonium group. […]
The cell-fixed nanowires were positioned down, the PTP substrate peptide-fixed nanowires were positioned up, and they were contacted with each other, and then, incubated in DMEM medium containing penicillin (100 units/ml), streptomycin (0.1 mg/ml), and 10% FBS at 37° C., 5% CO2 for 1 hour. After incubation, the cell-fixed silicon nanowires and the peptide-fixed nanowires were separated from each other, and the peptide-fixed nanowires were washed with PBS and introduced in a buffer containing 50 mM Tris-HCl, pH 7.5, 0.5 mM EDTA, and 1 mM DTT (Dithiothreitol), and TEV protease (10 units/150 μl, Invitrogen) were added and treated at room temperature for 2 hours, and then, desalting was conducted with Zip-TIP (MILLIPORE), and changes of peptides were analyzed by MALDI-TOF (Applied Biosystems). […]

intracellular caspases [2] = experiment: Nanowire sandwich assay of intracellular caspase activity, mass analysis (MALDI-TOF) of substrate peptide; conditions: 500 nM Staurosporine, 18 hours; FIG. 8C
intracellular caspases [3] = experiment: Nanowire sandwich assay of intracellular caspase activity, TAMRA-labelled substrate peptide, fluorescence microscope; conditions: 200 nM apoptosis inducing agent in medium, 4 hours; 555 nm excitation/590 nm emission; FIG. 6D
Protocol: Since the fragments released into cells have TAMRA dye and can be identified by fluorescence microscope, activation of caspases may be confirmed based thereon.
As described in Example 5, peptides were fixed to nanowires using SMPH linker, and the peptide-fixed nanowires were positioned down, cell-fixed nanowire were positioned up, and they were contacted in a sandwich manner and incubated in DMEM containing penicillin (100 units/ml), streptomycin (0.1 mg/ml), 10% FBS and 200 nM Staurosporine (apoptosis inducing agent, Sigma) at 37° C., 5% CO2 for 4 hours.

Row | SMILES | 1204 dalton peak (dephosphorylated PTP substrate peptide) in MALDI-TOF [1] | cleavage of caspase substrate peptide (mass peak of 1041 dalton) (intracellular caspases [2]) | intracellular caspase activation: TAMRA dye-containing peptide fragments released into the cells (intracellular caspases [3])
1 | [Na+].[Na+].[Na+].[O]=[V]([O-])([O-])[O-] [sodium orthovanadate] | remarkably reduced |  | 
2 | CN[C@@H]1C[C@H]2O[C@@](C)([C@@H]1OC)n1c3ccccc3c3c4c(c5c6ccccc6n2c5c31)C(=O)NC4 [Staurosporine] |  | cleaved by caspase activated by staurosporine | intracellular caspases are activated
3 | O=C(CBr)c1ccc(O)cc1 [α-bromo-4-hydroxyacetophenone] | remarkably reduced |  | 
